# Laboratory results as given in patent publication US11401236B2, “Resorcinol derivatives for their cosmetic use” (L'OREAL, priority 2017, dated 2022).
# Where “and” joins values, the source holds several entries; their conditions need not be identical. Equal entries are not always repeated. Where two headings read alike, the source gives them in different places.
# Experiments:
# normal human melanocytes = assay: Depigmenting activity: reduction of melanin production in normal human melanocytes in vitro; assay type: cell-based; conditions: Melanocyte
# Description: The measurement of the depigmenting activity (reduction of melanin production) of compounds of formula (I) was performed by assaying normal human melanocytes in vitro as follows.
# First of all, normal human melanocytes were cultured and dispensed into 384 wells. After 24 hours, the culture medium was replaced with a medium containing compounds of formula (I) to be evaluated. The cells were incubated for 72 hours before measurement of the final optical density, which measures the amount of melanin produced by the melanocytes. A dose effect was performed using a wide concentration range of the compounds evaluated. Thus, by making the concentrations and the measurements of melanin correspond, it is possible to determine an IC50 in μM: concentration at which 50% decrease in melanin synthesis is achieved.
# [1] = test system: pigmented reconstructed epidermis; assay: Experiment on pigmented reconstructed epidermis (melanin versus solvent); assay type: cell-based
# Excerpt: Experiment on pigmented reconstructed epidermis
# [2] = Stability of the compound (statement in the synthesis example); assay type: physicochemical; conditions: no conditions given
# [3] = test system: coculture of keratinocytes and melanocytes; assay: Modulatory effect on melanogenesis and cytotoxicity in a coculture of keratinocytes and melanocytes; assay type: cell-based; conditions: for IC50: melanin optical density, read-out: IC50 (concentration for which 50% of the melanin synthesis is inhibited)
# Description: The modulatory effect on melanogenesis of each compound was measured according to the method described in the patent FR-A-2734825, and also in the article by R. Schmidt, P. Krien and M. Régnier, Anal. Biochem., 235(2), 113-18, 1996. This test is carried out on a coculture of keratinocytes and melanocytes. For the compounds tested, the following were determined: • the cytotoxicity, • the inhibitory activity on melanin synthesis, by estimating the melanin optical density, • the IC50 values (concentration for which 50% of the melanin synthesis is inhibited).
# [4] = Table 2 test campaign, normal human melanocytes, 72 hours incubation, concentration at which 50% decrease in melanin synthesis is achieved, maximum concentration tested 200 μM, read-out: IC50
# [5] = Homo sapiens, 72 h, Table 3 test campaign, normal human melanocytes, 72 hours incubation, 50% decrease in melanin synthesis, maximum concentration tested 200 μM, read-out: IC50
# [6] = Homo sapiens, prior-art comparison compounds, compared with the Table 2 results, melanin synthesis in normal human melanocytes, read-out: IC50 value
melting point,Compound,IC50 (normal human melanocytes; [4]),IC50 (normal human melanocytes; [5]),other results
–,"CCOC(=O)CCC(C)c1ccc(O)cc1O (centres unmarked) [Compound 30, ethyl 4-(2,4-dihydroxyphenyl)pentanoate]",1010 nM,–,–
63 °C,"COC(=O)[C@H](CC(C)C)NC(=O)CCC(C)c1ccc(O)cc1O (some centres unmarked) [Compound 20, methyl N-[4-(2,4-dihydroxyphenyl)pentanoyl]leucinate]",1580 nM,1200 nM,–
–,"CCN(CC)C(=O)CCC(C)c1ccc(O)cc1O (centres unmarked) [Compound 24, 4-(2,4-dihydroxyphenyl)-N,N-diethylpentanamide]",1020 nM,–,–
–,"CC(CCC(=O)OC[C@@H](O)[C@H](O)[C@@H](O)CO)c1ccc(O)cc1O (stereo partly drawn) [Compound 32, 5-O-[4-(2,4-dihydroxyphenyl)pentanoyl]-D-xylitol]",3030 nM,–,–
–,"CCNC(=O)CCC(C)c1ccc(O)cc1O (centres unmarked) [Compound 2, 4-(2,4-dihydroxyphenyl)-N-ethylpentanamide]",824 nM,–,depigmenting efficiency ([1]; comparison with lucinol): greater than lucinol; Comparison of melanin with respect to the solvent (DMSO) ([1]; effective concentration 50 μM): −26%
–,"CC(CCC(=O)O)c1ccc(O)cc1O (centres unmarked) [Compound 1, 4-(2,4-dihydroxyphenyl)pentanoic Acid]",4800 nM,–,stability of the compound [2]: stable
–,"CC(CCC(=O)NCC1CCCCC1)c1ccc(O)cc1O (centres unmarked) [Compound 7, N-(cyclohexylmethyl)-4-(2,4-dihydroxyphenyl)pentanamide]",401 nM,–,–
–,"CCOC(=O)CN(C)C(=O)CCC(C)c1ccc(O)cc1O (centres unmarked) [Compound 27, ethyl N-[4-(2,4-dihydroxyphenyl)pentanoyl]-N-methylglycinate]",–,51300 nM,–
75 to 78 °C,"CC(CCC(=O)NC1CCCCC1)c1ccc(O)cc1O (centres unmarked) [Compound 6, N-cyclohexyl-4-(2,4-dihydroxyphenyl)pentanamide]",557 nM,391 nM,cytotoxicity [3]: non-cytotoxic; IC50 [3]: 140 nM
–,"CCOC(=O)C(C)NC(=O)CCC(C)c1ccc(O)cc1O (racemic) [Compound 17, ethyl N-[4-(2,4-dihydroxyphenyl)pentanoyl]-DL-alaninate]",–,391 nM,cytotoxicity [3]: non-cytotoxic; IC50 [3]: 120 nM
60 to 65 °C and 56 °C,"CC(C)NC(=O)CCC(C)c1ccc(O)cc1O (centres unmarked) [Compound 3, 4-(2,4-dihydroxyphenyl)-N-(propan-2-yl)pentanamide]",617 nM,–,–
–,"CC(CCC(=O)NCCc1ccc(O)cc1)c1ccc(O)cc1O (centres unmarked) [Compound 8, 4-(2,4-dihydroxyphenyl)-N-[2-(4-hydroxyphenyl)ethyl]pentanamide]",391 nM,–,–
–,"CC(CCC(=O)OCCCNC(=O)C1OC(C)(C)OCC1(C)C)c1ccc(O)cc1O (centres unmarked) [Compound 34, 3-{[(2,2,5,5-tetramethyl-1,3-dioxan-4-yl)carbonyl]amino}propyl 4-(2,4-dihydroxyphenyl)pentanoate]",2950 nM,–,–
59 to 65 °C,"CC(CCC(=O)NCC(=O)O)c1ccc(O)cc1O (centres unmarked) [Compound 14, N-[4-(2,4-dihydroxyphenyl)pentanoyl]glycine]",–,18500 nM,–
65 to 68 °C,"CC(CCC(=O)N[C@H](C)C(=O)O)c1ccc(O)cc1O (stereo partly drawn) [Compound 18, N-[4-(2,4-dihydroxyphenyl)pentanoyl]-D-alanine]",1630 nM,–,–
–,"COC(=O)CC(C)c1ccc(O)cc1O (centres unmarked) [(B), reference compound]",–,–,IC50 (normal human melanocytes; [6]): 4970 nM
–,"CNC(=O)/C=C/c1ccc(O)cc1O [(A), reference compound]",–,–,IC50 (normal human melanocytes; [6]): 3860 nM
78 to 81 °C,"COCCN(CCOC)C(=O)CCC(C)c1ccc(O)cc1O (centres unmarked) [Compound 25, 4-(2,4-dihydroxyphenyl)-N,N-bis(2-methoxyethyl)pentanamide]",–,5270 nM,–
–,"CC(CCC(=O)N1CCOCC1)c1ccc(O)cc1O (centres unmarked) [Compound 29, 4-(2,4-dihydroxyphenyl)-1-(morpholin-4-yl)pentan-1-one]",2940 nM,1820 nM,–
–,"CCCCc1ccc(O)cc1O [Lucinol, 4-n-butyl resorcinol, reference compound]",–,–,IC50 [3]: 790 nM; Comparison of melanin with respect to the solvent (DMSO) ([1]; effective concentration 500 μM): −25%
–,"CCCCNC(=O)CCC(C)c1ccc(O)cc1O (centres unmarked) [Compound 4, N-butyl-4-(2,4-dihydroxyphenyl)pentanamide]",692 nM,–,–
48 to 50 °C,"CCOC(=O)[C@H](C)NC(=O)CCC(C)c1ccc(O)cc1O (stereo partly drawn) [Compound 15, ethyl N-[4-(2,4-dihydroxyphenyl)pentanoyl]-L-alaninate]",1080 nM,–,–
–,"O=C(O)CCc1ccc(O)cc1O [(C), reference compound]",–,–,IC50 (normal human melanocytes; [6]): 63100 nM
54 to 56 °C,"CC(CCC(N)=O)c1ccc(O)cc1O (centres unmarked) [Compound 10, 4-(2,4-dihydroxyphenyl)pentanamide]",1070 nM,–,–
–,"CCC(C)NC(=O)CCC(C)c1ccc(O)cc1O (centres unmarked) [Compound 5, N-(butan-2-yl)-4-(2,4-dihydroxyphenyl)pentanamide]",447 nM,391 nM,–
–,"CCNC(=O)CCC(C)c1ccc(OC(C)=O)cc1OC(C)=O (centres unmarked) [Compound 11, 4-[5-(ethylamino)-5-oxopentan-2-yl]benzene-1,3-diyl diacetate]",940 nM,–,–
–,"CC(CCC(=O)N(C)CC(=O)O)c1ccc(O)cc1O (centres unmarked) [Compound 28, N-[4-(2,4-dihydroxyphenyl)pentanoyl]-N-methylglycine]",–,31100 nM,–
51 to 59 °C,"CCOC(=O)[C@H](Cc1ccccc1)NC(=O)CCC(C)c1ccc(O)cc1O (some centres unmarked) [Compound 22, ethyl N-[4-(2,4-dihydroxyphenyl)pentanoyl]phenylalaninate]",–,8330 nM,–
–,"CCN(CCO)C(=O)CCC(C)c1ccc(O)cc1O (centres unmarked) [Compound 26, 4-(2,4-dihydroxyphenyl)-N-ethyl-N-(2-hydroxyethyl)pentanamide]",1960 nM,–,cytotoxicity [3]: non-cytotoxic; IC50 [3]: 450 nM
–,"CC(CCC(=O)NCCO)c1ccc(O)cc1O (centres unmarked) [Compound 9, 4-(2,4-dihydroxyphenyl)-N-(2-hydroxyethyl)pentanamide]",636 nM,–,–
